# Experimental data taken from patent publication US9340590B2 (priority 2011, dated 2016).
# Like-named read-outs stand apart in the source and are kept apart here. Positions of bridges follow the written chain, without caps; N, C: chain ends. Non-standard residues stand in square brackets, D forms with d. Residues, ends and D or L forms follow the SMILES beside them. *: point of attachment. 1Nal = N[C@@H](Cc1cccc2ccccc12)C(=O)O; Gly(cPent) = N[C@H](C(=O)O)C1CCCC1; Pent4ynoyl = C#CCCC(=O)*; Nva = CCC[C@H](N)C(=O)O; Abu = CC[C@H](N)C(=O)O
# What was measured:
# Assay in all cases: cell-based
# hNav1.3 = hNav1.3 (Homo sapiens, UniProt Q9NY46); conditions: IonWorks Quattro, read-out: IWQ Use Nav1.3
# hNav1.3, sequence (Q9NY46 whole entry, looked up): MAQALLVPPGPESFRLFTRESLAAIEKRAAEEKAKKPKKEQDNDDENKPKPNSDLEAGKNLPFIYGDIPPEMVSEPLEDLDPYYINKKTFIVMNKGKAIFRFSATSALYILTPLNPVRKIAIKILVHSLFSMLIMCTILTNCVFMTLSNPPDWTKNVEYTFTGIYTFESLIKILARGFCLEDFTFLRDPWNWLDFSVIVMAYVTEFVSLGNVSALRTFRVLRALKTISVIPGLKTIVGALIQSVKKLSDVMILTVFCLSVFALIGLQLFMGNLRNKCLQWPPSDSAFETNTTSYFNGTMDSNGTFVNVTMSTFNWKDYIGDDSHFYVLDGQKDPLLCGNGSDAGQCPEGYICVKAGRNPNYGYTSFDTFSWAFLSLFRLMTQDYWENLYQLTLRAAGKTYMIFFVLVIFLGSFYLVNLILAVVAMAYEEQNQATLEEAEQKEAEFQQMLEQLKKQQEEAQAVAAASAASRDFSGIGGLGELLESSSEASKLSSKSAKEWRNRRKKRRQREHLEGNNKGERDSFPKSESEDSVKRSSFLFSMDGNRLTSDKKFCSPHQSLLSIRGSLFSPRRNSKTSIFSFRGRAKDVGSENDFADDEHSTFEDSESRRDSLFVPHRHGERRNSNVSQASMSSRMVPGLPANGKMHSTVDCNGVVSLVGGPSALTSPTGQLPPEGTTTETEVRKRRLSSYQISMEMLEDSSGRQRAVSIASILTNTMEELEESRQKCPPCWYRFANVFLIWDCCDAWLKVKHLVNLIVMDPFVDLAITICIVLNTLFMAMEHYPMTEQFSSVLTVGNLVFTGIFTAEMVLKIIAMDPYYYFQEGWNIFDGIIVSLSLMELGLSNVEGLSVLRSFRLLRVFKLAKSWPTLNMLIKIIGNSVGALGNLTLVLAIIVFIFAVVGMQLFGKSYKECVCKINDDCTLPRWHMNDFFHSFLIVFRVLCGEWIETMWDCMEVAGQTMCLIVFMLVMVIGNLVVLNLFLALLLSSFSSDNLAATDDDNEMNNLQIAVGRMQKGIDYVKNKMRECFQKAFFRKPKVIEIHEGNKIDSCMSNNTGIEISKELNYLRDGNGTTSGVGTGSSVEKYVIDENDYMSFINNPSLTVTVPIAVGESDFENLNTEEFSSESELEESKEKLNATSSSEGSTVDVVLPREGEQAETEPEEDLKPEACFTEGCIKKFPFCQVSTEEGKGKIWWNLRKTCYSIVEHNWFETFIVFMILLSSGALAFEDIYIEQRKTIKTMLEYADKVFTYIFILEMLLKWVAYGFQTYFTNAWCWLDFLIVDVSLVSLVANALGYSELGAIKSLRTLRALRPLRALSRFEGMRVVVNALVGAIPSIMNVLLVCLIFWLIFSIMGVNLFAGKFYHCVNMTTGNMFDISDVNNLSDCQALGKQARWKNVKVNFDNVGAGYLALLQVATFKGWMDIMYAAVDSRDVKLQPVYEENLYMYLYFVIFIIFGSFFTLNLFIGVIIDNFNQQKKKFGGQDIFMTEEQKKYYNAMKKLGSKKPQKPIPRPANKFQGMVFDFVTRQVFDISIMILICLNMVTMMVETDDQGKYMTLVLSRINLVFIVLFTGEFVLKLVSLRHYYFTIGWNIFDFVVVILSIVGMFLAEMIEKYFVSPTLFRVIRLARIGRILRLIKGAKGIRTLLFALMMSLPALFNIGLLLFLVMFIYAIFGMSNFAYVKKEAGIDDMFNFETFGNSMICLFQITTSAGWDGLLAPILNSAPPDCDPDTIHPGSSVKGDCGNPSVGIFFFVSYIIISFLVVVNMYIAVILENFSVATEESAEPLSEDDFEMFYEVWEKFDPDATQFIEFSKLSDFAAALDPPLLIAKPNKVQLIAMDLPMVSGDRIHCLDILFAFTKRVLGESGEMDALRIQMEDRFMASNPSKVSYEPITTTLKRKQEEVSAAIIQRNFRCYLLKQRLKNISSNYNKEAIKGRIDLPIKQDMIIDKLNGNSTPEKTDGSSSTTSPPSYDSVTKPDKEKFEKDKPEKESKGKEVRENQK
# hNav1.7 = hNav1.7 (Homo sapiens, UniProt Q15858); type: cell-based; conditions: IonWorks Quattro, read-out: IWQ Use Nav1.7
# hNav1.7, sequence (Q15858 whole entry, looked up): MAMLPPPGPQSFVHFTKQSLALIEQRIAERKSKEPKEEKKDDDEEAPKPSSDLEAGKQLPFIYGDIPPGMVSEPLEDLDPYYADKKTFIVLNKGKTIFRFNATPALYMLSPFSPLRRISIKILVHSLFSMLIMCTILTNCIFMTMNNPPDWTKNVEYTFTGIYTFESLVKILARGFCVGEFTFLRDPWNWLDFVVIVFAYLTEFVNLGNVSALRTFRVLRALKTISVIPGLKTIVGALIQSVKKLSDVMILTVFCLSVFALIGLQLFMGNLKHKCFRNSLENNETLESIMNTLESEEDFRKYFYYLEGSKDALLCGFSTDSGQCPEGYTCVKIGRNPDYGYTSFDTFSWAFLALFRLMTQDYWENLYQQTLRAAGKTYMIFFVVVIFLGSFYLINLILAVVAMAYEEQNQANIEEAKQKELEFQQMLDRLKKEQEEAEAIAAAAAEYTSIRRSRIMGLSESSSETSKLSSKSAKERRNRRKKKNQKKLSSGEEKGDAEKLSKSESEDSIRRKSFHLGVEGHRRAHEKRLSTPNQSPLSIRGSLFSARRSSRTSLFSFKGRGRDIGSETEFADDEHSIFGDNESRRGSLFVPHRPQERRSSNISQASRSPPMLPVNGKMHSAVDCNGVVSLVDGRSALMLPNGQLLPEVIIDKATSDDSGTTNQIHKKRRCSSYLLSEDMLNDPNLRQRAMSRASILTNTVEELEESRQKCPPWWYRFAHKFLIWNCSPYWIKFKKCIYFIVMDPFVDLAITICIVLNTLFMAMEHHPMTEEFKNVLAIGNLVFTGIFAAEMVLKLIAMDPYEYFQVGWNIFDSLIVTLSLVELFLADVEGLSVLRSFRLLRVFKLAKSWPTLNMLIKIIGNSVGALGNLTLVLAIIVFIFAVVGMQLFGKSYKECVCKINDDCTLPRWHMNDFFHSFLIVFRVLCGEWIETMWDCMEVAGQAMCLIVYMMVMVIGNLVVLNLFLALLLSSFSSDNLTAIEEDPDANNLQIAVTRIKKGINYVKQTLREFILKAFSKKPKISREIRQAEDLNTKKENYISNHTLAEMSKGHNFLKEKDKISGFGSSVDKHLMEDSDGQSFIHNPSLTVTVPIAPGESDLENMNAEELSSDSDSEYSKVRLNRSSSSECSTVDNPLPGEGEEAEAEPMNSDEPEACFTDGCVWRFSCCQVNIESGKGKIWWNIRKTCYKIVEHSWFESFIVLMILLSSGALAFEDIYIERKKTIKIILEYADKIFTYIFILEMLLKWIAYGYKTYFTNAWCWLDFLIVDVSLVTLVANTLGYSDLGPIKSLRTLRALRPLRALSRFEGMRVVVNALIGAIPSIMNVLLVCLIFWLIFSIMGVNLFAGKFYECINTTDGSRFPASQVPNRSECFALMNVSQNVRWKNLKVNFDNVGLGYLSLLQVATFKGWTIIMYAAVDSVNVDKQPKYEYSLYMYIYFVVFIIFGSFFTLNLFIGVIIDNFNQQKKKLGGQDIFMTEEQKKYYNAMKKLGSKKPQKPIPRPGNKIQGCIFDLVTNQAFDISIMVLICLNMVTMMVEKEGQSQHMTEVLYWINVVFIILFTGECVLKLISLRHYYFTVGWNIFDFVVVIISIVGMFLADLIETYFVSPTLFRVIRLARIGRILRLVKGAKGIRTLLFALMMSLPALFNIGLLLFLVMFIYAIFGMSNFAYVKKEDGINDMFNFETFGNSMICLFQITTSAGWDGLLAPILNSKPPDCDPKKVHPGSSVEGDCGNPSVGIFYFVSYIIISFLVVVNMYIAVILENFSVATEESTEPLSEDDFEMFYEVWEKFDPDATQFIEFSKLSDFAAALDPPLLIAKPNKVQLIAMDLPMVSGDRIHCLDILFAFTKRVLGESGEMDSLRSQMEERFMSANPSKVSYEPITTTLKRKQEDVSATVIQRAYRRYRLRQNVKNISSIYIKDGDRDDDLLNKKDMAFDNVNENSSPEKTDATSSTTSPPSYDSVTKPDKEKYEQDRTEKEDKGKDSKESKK
# hNav1.5 = hNav1.5 (Homo sapiens, UniProt Q14524)
# [1] = IonWorks Quattro, use-dependent block, hNav1.5, read-out: IWQ Use Nav1.5
# [2] = use-dependent protocol, hNav1.3
# [3] = use-dependent protocol, hNav1.7
# [4] = IonWorks Quattro, use-dependent protocol, hNav1.5, read-out: IWQ Use Nav1.5
# [5] = clamped to −110 mV, depolarized to −10 mV, 5 min after compound, n=2
smiles,measurement,setting,value
"C#CCCC(=O)N[C@@H](CC(=O)O)C(=O)N[C@H]1CSSC[C@@H]2NC(=O)[C@@H]3CSSC[C@@H](C(=O)N[C@@H](CCCCN)C(=O)N[C@@H](Cc4ccc(O)cc4)C(=O)N[C@H](C(=O)N[C@@H](Cc4ccccc4)C(N)=O)C(C)C)NC(=O)[C@H](Cc4c[nH]c5ccccc45)NC(=O)[C@H](CCCCN)NC(=O)[C@H](Cc4c[nH]cn4)NC(=O)[C@H]([C@@H](C)O)NC(=O)[C@H](CCCNC(=N)N)NC(=O)[C@H](CO)NC(=O)[C@H](CSSC[C@H](NC(=O)[C@H](CCCCN)NC(=O)[C@H](CCCNC(=N)N)NC(=O)[C@H](CC(C)C)NC(=O)[C@H](CCC)NC(=O)CNC(=O)[C@H](CC(C)C)NC1=O)C(=O)N[C@@H]([C@@H](C)CC)C(=O)N1CCC[C@H]1C(=O)N[C@@H](CC(=O)O)C(=O)N[C@@H](CC)C(=O)N[C@@H](CC(=O)O)C(=O)N[C@@H](CCCCN)C(=O)N3)NC(=O)[C@H](C(C)C)NC(=O)[C@H](CC(C)C)NC(=O)[C@H](CC(N)=O)NC(=O)[C@@H]1CCCN1C(=O)[C@H](CCCNC(=N)N)NC2=O [compound 760] (Pent4ynoyl-DCLG[Nva]LRKCIPD[Abu]DKCCRPNLVCSRTHKWCKYVF-NH2; disulfide 2-17, 9-23, 16-30)",IC50,"hNav1.3; use-dependent block, hNav1.3",0.25 µM
same,IC50,"hNav1.7; use-dependent block, hNav1.7",0.19 µM
same,IC50,hNav1.5; [1],35.2 µM
"CC[C@H](C)[C@@H]1NC(=O)[C@@H]2CSSC[C@@H]3NC(=O)[C@H](C(C)C)NC(=O)[C@H](CC(C)C)NC(=O)[C@H](CC(N)=O)NC(=O)[C@@H]4CCCN4C(=O)[C@H](CCCNC(=N)N)NC(=O)[C@H](CSSC[C@H](NC(=O)[C@@H](N)CC(=O)O)C(=O)N[C@@H](CC(C)C)C(=O)NCC(=O)N[C@@H](Cc4ccccc4)C(=O)N[C@@H](CCSC)C(=O)N[C@@H](CCCNC(=N)N)C(=O)N[C@@H](CCCCN)C(=O)N2)NC(=O)[C@H](CSSC[C@@H](C(=O)N[C@@H](CCCCN)C(=O)N[C@@H](Cc2cccc4ccccc24)C(=O)N[C@H](C(=O)N[C@@H](Cc2ccccc2)C(N)=O)C(C)C)NC(=O)[C@H](Cc2c[nH]c4ccccc24)NC(=O)[C@H](CCCCN)NC(=O)[C@H](Cc2c[nH]cn2)NC(=O)[C@H](CC(C)C)NC(=O)[C@H](CCCNC(=N)N)NC(=O)[C@H](CO)NC3=O)NC(=O)[C@H](CCCCN)NC(=O)[C@H](CC(=O)O)NC(=O)[C@H](CC(N)=O)NC(=O)[C@H](CC(=O)O)NC(=O)[C@@H]2CCCN2C1=O [compound 453] (H-DCLGFMRKCIPDNDKCCRPNLVCSRLHKWCK[1Nal]VF-NH2; disulfide 2-17, 9-23, 16-30)",IC50,"hNav1.3; use-dependent block, hNav1.3",0.01 µM
same,IC50,"hNav1.7; use-dependent block, hNav1.7",0.01 µM
same,IC50,hNav1.5; [1],> 5 µM
"CC[C@H](C)[C@@H]1NC(=O)[C@@H]2CSSC[C@@H]3NC(=O)[C@H](C(C)C)NC(=O)[C@H](CC(C)C)NC(=O)[C@H](CC(N)=O)NC(=O)[C@@H]4CCCN4C(=O)[C@H](CCCNC(=N)N)NC(=O)[C@H](CSSC[C@H](NC(=O)[C@@H](N)CC(=O)O)C(=O)N[C@@H](CC(C)C)C(=O)NCC(=O)N[C@@H](C)C(=O)N[C@@H](CCSC)C(=O)N[C@@H](CCCNC(=N)N)C(=O)N[C@@H](CCCCN)C(=O)N2)NC(=O)[C@H](CSSC[C@@H](C(=O)N[C@@H](CCCCN)C(=O)N[C@@H](Cc2ccc(O)cc2)C(=O)N[C@H](C(=O)N[C@@H](Cc2ccccc2)C(N)=O)C(C)C)NC(=O)[C@H](Cc2c[nH]c4ccccc24)NC(=O)CNC(=O)[C@H](Cc2c[nH]cn2)NC(=O)[C@H]([C@@H](C)O)NC(=O)[C@H](CCCNC(=N)N)NC(=O)[C@H](CO)NC3=O)NC(=O)[C@H](CCCCN)NC(=O)[C@H](CC(=O)O)NC(=O)[C@H](CC(N)=O)NC(=O)[C@H](CC(=O)O)NC(=O)[C@@H]2CCCN2C1=O [compound 715] (H-DCLGAMRKCIPDNDKCCRPNLVCSRTHGWCKYVF-NH2; disulfide 2-17, 9-23, 16-30)",IC50,"hNav1.3; use-dependent block, hNav1.3",> 5 µM
same,IC50,"hNav1.7; use-dependent block, hNav1.7",1 µM
same,IC50,hNav1.5; [1],> 50 µM
"CSCC[C@@H]1NC(=O)[C@H](C)NC(=O)CNC(=O)[C@H](CC(C)C)NC(=O)[C@@H](NC(=O)[C@@H](N)CC(=O)O)CSSC[C@@H]2NC(=O)[C@@H]3CSSC[C@@H](C(=O)N[C@@H](CCCCN)C(=O)N[C@@H](Cc4ccc(O)cc4)C(=O)N[C@H](C(=O)N[C@@H](Cc4ccccc4)C(N)=O)C(C)C)NC(=O)[C@H](Cc4c[nH]c5ccccc45)NC(=O)[C@H](CCCCN)NC(=O)[C@H](Cc4c[nH]cn4)NC(=O)[C@H]([C@@H](C)O)NC(=O)[C@H](CCCNC(=N)N)NC(=O)[C@H](CO)NC(=O)[C@H](CSSC[C@H](NC(=O)[C@H](CCCCN)NC(=O)[C@H](CCCNC(=N)N)NC1=O)C(=O)N[C@@H](CC(=O)O)C(=O)N1CCC[C@H]1C(=O)N[C@@H](CCC(=O)O)C(=O)N[C@@H](CC(N)=O)C(=O)N[C@@H](CC(=O)O)C(=O)N[C@@H](CCCCN)C(=O)N3)NC(=O)[C@H](C(C)C)NC(=O)[C@H](CC(C)C)NC(=O)[C@H](CC(N)=O)NC(=O)[C@@H]1CCCN1C(=O)[C@H](CCCNC(=N)N)NC2=O [compound 701] (H-DCLGAMRKCDPENDKCCRPNLVCSRTHKWCKYVF-NH2; disulfide 2-17, 9-23, 16-30)",IC50,hNav1.3; [2],1.5 µM
same,IC50,hNav1.7; [3],0.97 µM
same,IC50,hNav1.5; [4],43 µM
"CC[C@H](C)[C@@H]1NC(=O)[C@@H]2CSSC[C@@H]3NC(=O)[C@H](C(C)C)NC(=O)[C@H](CC(C)C)NC(=O)[C@H](CC(N)=O)NC(=O)[C@@H]4CCCN4C(=O)[C@H](CCCNC(=N)N)NC(=O)[C@H](CSSC[C@H](NC(=O)[C@@H](N)CC(=O)O)C(=O)N[C@@H](CC(C)C)C(=O)NCC(=O)N[C@@H](C4CCCC4)C(=O)N[C@@H](Cc4ccccc4)C(=O)N[C@@H](CCCNC(=N)N)C(=O)N[C@@H](CCCCN)C(=O)N2)NC(=O)[C@H](CSSC[C@@H](C(=O)N[C@@H](CCCCN)C(=O)N[C@@H](Cc2ccc(O)cc2)C(=O)N[C@H](C(=O)N[C@@H](Cc2ccccc2)C(N)=O)C(C)C)NC(=O)[C@H](Cc2c[nH]c4ccccc24)NC(=O)[C@H](CCCCN)NC(=O)[C@H](Cc2c[nH]cn2)NC(=O)[C@H]([C@@H](C)O)NC(=O)[C@H](CCCNC(=N)N)NC(=O)[C@H](CO)NC3=O)NC(=O)[C@H](CCCCN)NC(=O)[C@H](CC(=O)O)NC(=O)[C@H](CC(N)=O)NC(=O)[C@H](CC(=O)O)NC(=O)[C@@H]2CCCN2C1=O [compound 615] (H-DCLG[Gly(cPent)]FRKCIPDNDKCCRPNLVCSRTHKWCKYVF-NH2; disulfide 2-17, 9-23, 16-30)",IC50,hNav1.3; [2],0.12 µM
same,IC50,hNav1.7; [3],0.035 µM
same,IC50,hNav1.5; [4],5.6 µM
"CC[C@H](C)[C@@H]1NC(=O)[C@@H]2CSSC[C@@H]3NC(=O)[C@H](C(C)C)NC(=O)[C@H](CC(C)C)NC(=O)[C@H](CC(N)=O)NC(=O)[C@@H]4CCCN4C(=O)[C@H](CCCNC(=N)N)NC(=O)[C@H](CSSC[C@H](NC(=O)[C@@H](N)Cc4c[nH]c5ccccc45)C(=O)N[C@@H](CC(C)C)C(=O)NCC(=O)N[C@@H](Cc4ccccc4)C(=O)N[C@@H](CCSC)C(=O)N[C@@H](CCCNC(=N)N)C(=O)N[C@@H](CCCCN)C(=O)N2)NC(=O)[C@H](CSSC[C@@H](C(=O)N[C@@H](CCCCN)C(=O)N[C@@H](Cc2ccc(O)cc2)C(=O)N[C@H](C(=O)N[C@@H](Cc2ccccc2)C(N)=O)C(C)C)NC(=O)[C@H](Cc2c[nH]c4ccccc24)NC(=O)[C@H](CCCCN)NC(=O)[C@H](Cc2cnc[nH]2)NC(=O)[C@H]([C@@H](C)O)NC(=O)[C@H](CCCNC(=N)N)NC(=O)[C@H](CO)NC3=O)NC(=O)[C@H](CCCCN)NC(=O)[C@H](CC(=O)O)NC(=O)[C@H](CC(N)=O)NC(=O)[C@H](CC(=O)O)NC(=O)[C@@H]2CCCN2C1=O [SEQ ID NO: 81] (H-WCLGFMRKCIPDNDKCCRPNLVCSRTHKWCKYVF-NH2; disulfide 2-17, 9-23, 16-30)",IC50,hNav1.3; [5],0.1 µM
same,IC50,hNav1.7; [5],0.05 µM
same,IC50,hNav1.5; IWQ Use Nav1.5,8.79 µM
"CC[C@H](C)[C@@H]1NC(=O)[C@@H]2CSSC[C@@H]3NC(=O)[C@H](C(C)C)NC(=O)[C@H](CC(C)C)NC(=O)[C@H](CC(N)=O)NC(=O)[C@@H]4CCCN4C(=O)[C@H](CCCNC(=N)N)NC(=O)[C@H](CSSC[C@H](NC(=O)[C@@H](N)CC(=O)O)C(=O)N[C@@H](CC(C)C)C(=O)NCC(=O)N[C@@H](Cc4ccccc4)C(=O)N[C@@H](CCSC)C(=O)N[C@@H](CCCNC(=N)N)C(=O)N[C@@H](CCCCN)C(=O)N2)NC(=O)[C@H](CSSC[C@@H](C(=O)N[C@@H](CCCCN)C(=O)N[C@@H](Cc2ccc(O)cc2)C(=O)N[C@@H](CO)C(=O)N[C@@H](Cc2ccccc2)C(N)=O)NC(=O)[C@H](Cc2c[nH]c4ccccc24)NC(=O)[C@H](CCCCN)NC(=O)[C@H](Cc2c[nH]cn2)NC(=O)[C@H]([C@@H](C)O)NC(=O)[C@H](CCCNC(=N)N)NC(=O)[C@H](CO)NC3=O)NC(=O)[C@H](CCCCN)NC(=O)[C@H](CC(=O)O)NC(=O)[C@H](CC(N)=O)NC(=O)[C@H](CC(=O)O)NC(=O)[C@@H]2CCCN2C1=O [compound 397] (H-DCLGFMRKCIPDNDKCCRPNLVCSRTHKWCKYSF-NH2; disulfide 2-17, 9-23, 16-30)",IC50,"hNav1.3; Table 26, use, […]",0.06 µM
same,IC50,"hNav1.7; Table 26, use, […]",0.04 µM
same,IC50,"hNav1.5; Table 26, IonWorks Quattro, use, […], read-out: IWQ Use Nav1.5",6.28 µM
